This note sets out measurements from PubChem BioAssay (NCI).

Each structure is given as a SMILES string. Values joined by “and” are separate entries in the source; they are usually repeats but may differ in a detail not shown here. Identical values can stand only once.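 Growth conditions: 96-well plates. Treatment: test compound, 48 hours, 5 concentrations. Analysis: linear interpolation between bracketing concentrations; unreached endpoints set to highest concentration. At the GI50, growth is halved. At the TGI there is no net growth.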

Test systems include CAKI-1 renal; CCRF-CEM leukemia; HCT-116 colon; HL-60(TB) leukemia; HOP-62 NSCLC; HOP-92 NSCLC; KM12 colon; MDA-MB-231 breast; MDA-N; OVCAR-3 ovarian; OVCAR-8 ovarian; SF-268 CNS; SK-MEL-2 melanoma; SK-OV-3 ovarian; U251 CNS; UO-31 renal.
What all share (test): growth of human tumour cells (NCI), 48 h

On to `CC(=O)OCC1OC(Sc2nc(-c3ccc(C)cc3)c(C#N)c(=O)n2C2OC(COC(C)=O)C(OC(C)=O)C(OC(C)=O)C2OC(C)=O)C(OC(C)=O)C(OC(C)=O)C1OC(C)=O` (stereo unspecified), for which the TGI was > 100 µM with CAKI-1 renal; > 100 µM in the experiment with CCRF-CEM leukemia; > 100 µM in the experiment on HCT-116 colon; 76.6 µM with HL-60(TB) leukemia; > 100 µM in the experiment on HOP-62 NSCLC; > 100 µM in the experiment with HOP-92 NSCLC. For the same compound, the TGI in the experiment with KM12 colon was > 100 µM; in the experiment on MDA-MB-231 breast, > 100 µM; in the experiment on MDA-N, > 100 µM and 64.6 µM; in the experiment on OVCAR-3 ovarian, > 100 µM; with OVCAR-8 ovarian, > 100 µM; in the experiment on SF-268 CNS, > 100 µM. Further, the TGI with SK-MEL-2 melanoma, in the experiment on SK-OV-3 ovarian, in the experiment with U251 CNS and in the experiment on UO-31 renal was > 100 µM in each case. The GI50 with HL-60(TB) leukemia is 25.5 µM; in the experiment on HOP-92 NSCLC, > 100 µM and 41.7 µM; in the experiment on KM12 colon, > 100 µM and 38.7 µM; in the experiment with MDA-N it was > 100 µM and 10.1 µM.
Regarding `COc1ccc(C(=O)N=C2N(c3ccccc3)C(=Nc3ccccc3)C(=Nc3ccccc3)N2c2ccccc2)cc1`, the TGI with CAKI-1 renal is > 100 µM; with CCRF-CEM leukemia it was > 100 µM; in the experiment with HCT-116 colon it was > 100 µM; with HL-60(TB) leukemia, > 100 µM; with HOP-62 NSCLC it was 57.5 µM; with HOP-92 NSCLC, 15 µM. The TGI with KM12 colon, in the experiment on MDA-MB-231 breast, in the experiment on MDA-N, in the experiment on OVCAR-3 ovarian, with OVCAR-8 ovarian and with SF-268 CNS was > 100 µM throughout. In addition, the TGI with SK-MEL-2 melanoma was 98.1 µM; in the experiment on SK-OV-3 ovarian, > 100 µM; in the experiment with U251 CNS, > 87.9 µM; in the experiment on UO-31 renal, > 100 µM.
As to `COc1ccc(C(F)(F)F)cc1NC(=O)O/N=C(/Cl)C(C)C`, the TGI is 3.18 µM in the experiment with CAKI-1 renal; 31.9 µM in the experiment with CCRF-CEM leukemia; 35.4 µM with HCT-116 colon; > 21.8 µM with HL-60(TB) leukemia; 46 µM in the experiment on HOP-62 NSCLC; 18.9 µM with HOP-92 NSCLC. Besides, the TGI is > 60.2 µM in the experiment on KM12 colon; 37.4 µM in the experiment on MDA-MB-231 breast; 32.4 µM with MDA-N; 34.8 µM in the experiment with OVCAR-3 ovarian; 41.1 µM in the experiment on OVCAR-8 ovarian; 53.7 µM in the experiment on SF-268 CNS. Besides, the TGI in the experiment with SK-MEL-2 melanoma was 35.6 µM; in the experiment with SK-OV-3 ovarian, > 67.3 µM; with U251 CNS, > 58.2 µM; in the experiment with UO-31 renal it was 33.3 µM.
As to `OC(CCN1CCN(CCOC(c2ccc(F)cc2)c2ccc(F)cc2)CC1)c1ccccc1` (stereo unspecified), the TGI is 33.6 µM in the experiment on CAKI-1 renal; 45.6 µM in the experiment with CCRF-CEM leukemia; 26.2 µM in the experiment on HCT-116 colon; 37.3 µM with HL-60(TB) leukemia; 36.5 µM in the experiment with HOP-62 NSCLC; 23.8 µM with HOP-92 NSCLC. The TGI with KM12 colon is 44 µM; in the experiment on MDA-MB-231 breast it was 28.8 µM; with MDA-N it was 28.5 µM; with OVCAR-3 ovarian, 31.4 µM; in the experiment with OVCAR-8 ovarian, 25.7 µM; with SF-268 CNS, 31.2 µM. In addition, the TGI was 30.1 µM with SK-MEL-2 melanoma, 32.5 µM in the experiment with SK-OV-3 ovarian, 27.8 µM with U251 CNS and 11.2 µM in the experiment on UO-31 renal.
In the case of `COC(=O)c1ccc(/C=N/c2cc(C)nn2-c2ccccc2)cc1`, the TGI with CAKI-1 renal, in the experiment on CCRF-CEM leukemia, in the experiment with HCT-116 colon, in the experiment on HL-60(TB) leukemia, in the experiment on HOP-62 NSCLC and in the experiment on HOP-92 NSCLC was > 100 µM in each case. Also, the TGI with KM12 colon was > 100 µM; with MDA-MB-231 breast, > 100 µM; in the experiment on MDA-N, > 100 µM; with OVCAR-3 ovarian, 38.7 µM; in the experiment on OVCAR-8 ovarian it was > 100 µM; with SF-268 CNS it was > 100 µM. For the same compound, the TGI in the experiment with SK-MEL-2 melanoma, in the experiment on SK-OV-3 ovarian, with U251 CNS and with UO-31 renal was > 100 µM each time.
Take `CC1=CC(=O)c2cccc(O)c2C1=O`: the TGI with CAKI-1 renal was 3.29 µM; with CCRF-CEM leukemia it was 14.7 µM; in the experiment on HCT-116 colon, 3.49 µM; with HL-60(TB) leukemia, 9.13 µM; in the experiment with HOP-62 NSCLC, 30.9 µM; in the experiment with HOP-92 NSCLC, 3.29 µM. Further, the TGI was 25.3 µM in the experiment with KM12 colon; 3.15 µM in the experiment with MDA-MB-231 breast; 3.34 µM with MDA-N; 2.96 µM in the experiment on OVCAR-3 ovarian; 15.4 µM with OVCAR-8 ovarian; 14.6 µM in the experiment on SF-268 CNS. For the same compound, the TGI was found to be 4.57 µM in the experiment on SK-MEL-2 melanoma, 27.4 µM in the experiment on SK-OV-3 ovarian, 30.2 µM in the experiment with U251 CNS and 3.28 µM in the experiment on UO-31 renal.
On to `CCCC/C=C1\CCC(CN2CCOCC2)C1=O` (stereo unspecified), for which the TGI was 3.74 µM in the experiment on CAKI-1 renal; 3.35 µM with CCRF-CEM leukemia; 5.55 µM with HCT-116 colon; 5.61 µM in the experiment with HL-60(TB) leukemia; 30.2 µM in the experiment with HOP-62 NSCLC; 3.72 µM with HOP-92 NSCLC. Further, the TGI came to 7.38 µM in the experiment with KM12 colon; 14.5 µM in the experiment with MDA-MB-231 breast; 22.7 µM in the experiment with MDA-N; 19.3 µM in the experiment with OVCAR-3 ovarian; 22.5 µM in the experiment on OVCAR-8 ovarian; 36.3 µM in the experiment on SF-268 CNS. The TGI came to 23.8 µM in the experiment on SK-MEL-2 melanoma, 31 µM with SK-OV-3 ovarian, 8.35 µM in the experiment on U251 CNS and 11.6 µM in the experiment on UO-31 renal. For the same compound, the GI50 with HL-60(TB) leukemia was 0.566 µM.
On to `COC(=O)c1ccc(NCc2cc(O)c3ccccc3c2O)cc1`, for which the TGI is 13.4 µM in the experiment on CAKI-1 renal; 16.3 µM with CCRF-CEM leukemia; 38.4 µM in the experiment on HCT-116 colon; > 28.5 µM with HL-60(TB) leukemia; 32.5 µM with HOP-62 NSCLC; 9.97 µM in the experiment on HOP-92 NSCLC. In addition, the TGI was > 50 µM in the experiment with KM12 colon; 6.02 µM with MDA-MB-231 breast; 3.98 µM with MDA-N; 28.2 µM in the experiment on OVCAR-3 ovarian; 93.4 µM with OVCAR-8 ovarian; > 73.1 µM with SF-268 CNS. Further, the TGI with SK-MEL-2 melanoma turned out to be 43.2 µM; with SK-OV-3 ovarian, 31.6 µM; in the experiment with U251 CNS it was 40.1 µM; with UO-31 renal, 26.7 µM.
`CC(C)C(OC(=O)c1cc(NC(=S)c2ccccc2)ccc1Cl)C(C)C`: the TGI in the experiment on CAKI-1 renal is 51.9 µM; with CCRF-CEM leukemia, > 96.7 µM; in the experiment on HCT-116 colon, 40.8 µM; with HL-60(TB) leukemia it was 55.8 µM; in the experiment on HOP-62 NSCLC, > 100 µM; in the experiment on HOP-92 NSCLC it was 34.4 µM. Besides, the TGI with KM12 colon was 39.6 µM; in the experiment with MDA-MB-231 breast, 57.4 µM; in the experiment with MDA-N it was 39.8 µM; in the experiment with OVCAR-3 ovarian it was 52.5 µM; with OVCAR-8 ovarian, > 100 µM; in the experiment on SF-268 CNS it was 82 µM. In addition, the TGI in the experiment on SK-MEL-2 melanoma was 52.6 µM; in the experiment with SK-OV-3 ovarian it was 99.4 µM; in the experiment with U251 CNS it was > 61.5 µM; with UO-31 renal, 54.6 µM.
For the compound `Fc1ccc(C(OCCN2CC3CC2CN3CCCc2ccccc2)c2ccc(F)cc2)cc1` (stereo unspecified), the TGI with CAKI-1 renal is 24.6 µM; in the experiment with CCRF-CEM leukemia, 21.7 µM; in the experiment on HCT-116 colon, 18.5 µM; with HL-60(TB) leukemia, 12.3 µM; in the experiment on HOP-62 NSCLC, 29.1 µM; with HOP-92 NSCLC, 26.7 µM. Also, the TGI with KM12 colon turned out to be 21.2 µM; in the experiment on MDA-MB-231 breast it was 15.7 µM; in the experiment on MDA-N it was 19 µM; in the experiment with OVCAR-3 ovarian, 25.5 µM; in the experiment with OVCAR-8 ovarian it was 10.1 µM; in the experiment on SF-268 CNS, 22.4 µM. The TGI is 21.8 µM in the experiment on SK-MEL-2 melanoma, 31.7 µM with SK-OV-3 ovarian, 19.5 µM in the experiment on U251 CNS and 24.7 µM in the experiment on UO-31 renal.
With `c1ccc(SCCP(CCP(c2ccccc2)c2ccccc2)c2ccccc2)cc1` (stereo unspecified), the TGI was 63.3 µM in the experiment on CAKI-1 renal; > 100 µM in the experiment on CCRF-CEM leukemia; > 24.3 µM in the experiment with HCT-116 colon; > 22.2 µM in the experiment with HL-60(TB) leukemia; > 100 µM in the experiment on HOP-62 NSCLC; 15.1 µM with HOP-92 NSCLC. Further, the TGI in the experiment on KM12 colon is > 51 µM; in the experiment with MDA-MB-231 breast, > 100 µM; in the experiment with MDA-N, > 100 µM; in the experiment with OVCAR-3 ovarian, 39.9 µM; in the experiment on OVCAR-8 ovarian, > 100 µM; in the experiment on SF-268 CNS, > 100 µM. Further, the TGI in the experiment with SK-MEL-2 melanoma was 7.52 µM; in the experiment with SK-OV-3 ovarian, > 100 µM; with U251 CNS it was > 100 µM; with UO-31 renal, 53.9 µM.
